Source: patent US20260151383A1, “HETEROCYCLIC COMPOUNDS AND USES THEREOF” (KayoThera Inc., priority 2022, published 2026)

Legend:
Type in all cases: biochemical
Conditions in all cases: recombinant enzyme, 20° C., activity level classes
hALDH1a3 = target: T1, hALDH1a3 (Homo sapiens, UniProt P47895); assay: Aldh1a3 enzyme inhibition assay (resorufin fluorescence), human enzyme
T1 construct: made in house; host or cells: E. coli BL21-DE3
T1 sequence (P47895 1-512): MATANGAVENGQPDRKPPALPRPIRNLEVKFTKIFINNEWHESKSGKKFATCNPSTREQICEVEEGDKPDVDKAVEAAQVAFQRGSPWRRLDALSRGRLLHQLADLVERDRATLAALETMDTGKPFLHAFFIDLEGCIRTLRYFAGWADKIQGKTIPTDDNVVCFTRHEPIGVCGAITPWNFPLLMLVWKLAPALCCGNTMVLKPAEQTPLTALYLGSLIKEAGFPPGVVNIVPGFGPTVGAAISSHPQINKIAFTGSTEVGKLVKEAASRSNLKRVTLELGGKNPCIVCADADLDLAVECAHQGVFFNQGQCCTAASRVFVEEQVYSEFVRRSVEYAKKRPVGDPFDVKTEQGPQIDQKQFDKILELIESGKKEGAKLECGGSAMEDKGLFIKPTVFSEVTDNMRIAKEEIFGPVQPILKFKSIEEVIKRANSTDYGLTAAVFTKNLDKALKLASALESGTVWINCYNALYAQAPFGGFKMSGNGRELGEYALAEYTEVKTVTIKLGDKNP

mALDH1a3 = target: T2, mALDH1a3 (Mus musculus, UniProt Q9JHW9); assay: Aldh1a3 enzyme inhibition assay (resorufin fluorescence), mouse enzyme
T2 construct: made in house; host or cells: E. coli BL21-DE3
T2 sequence (Q9JHW9 1-512): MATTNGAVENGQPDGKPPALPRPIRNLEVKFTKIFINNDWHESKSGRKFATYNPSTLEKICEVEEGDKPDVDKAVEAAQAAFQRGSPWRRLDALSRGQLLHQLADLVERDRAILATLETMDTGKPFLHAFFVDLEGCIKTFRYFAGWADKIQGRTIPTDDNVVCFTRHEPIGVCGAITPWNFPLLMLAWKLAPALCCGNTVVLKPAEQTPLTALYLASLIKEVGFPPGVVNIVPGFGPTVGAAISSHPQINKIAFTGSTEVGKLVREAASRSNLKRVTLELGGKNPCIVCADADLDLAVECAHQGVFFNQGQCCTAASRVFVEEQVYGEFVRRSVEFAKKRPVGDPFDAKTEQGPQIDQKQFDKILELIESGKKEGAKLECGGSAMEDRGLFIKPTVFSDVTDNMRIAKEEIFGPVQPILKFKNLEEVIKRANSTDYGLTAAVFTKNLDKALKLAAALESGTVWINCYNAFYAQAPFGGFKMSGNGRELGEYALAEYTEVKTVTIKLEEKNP
Description: Recombinant enzyme and inhibitor added immediately before assay. Reaction rate measured by resorufin fluorescence.

hALDH1a2 = target: T3, hALDH1a2 (Homo sapiens, UniProt O94788); assay: Aldh1a2 enzyme inhibition assay (resorufin fluorescence), human enzyme
T3 construct: made in house; host or cells: E. coli BL21-DE3
T3 sequence (O94788 1-518): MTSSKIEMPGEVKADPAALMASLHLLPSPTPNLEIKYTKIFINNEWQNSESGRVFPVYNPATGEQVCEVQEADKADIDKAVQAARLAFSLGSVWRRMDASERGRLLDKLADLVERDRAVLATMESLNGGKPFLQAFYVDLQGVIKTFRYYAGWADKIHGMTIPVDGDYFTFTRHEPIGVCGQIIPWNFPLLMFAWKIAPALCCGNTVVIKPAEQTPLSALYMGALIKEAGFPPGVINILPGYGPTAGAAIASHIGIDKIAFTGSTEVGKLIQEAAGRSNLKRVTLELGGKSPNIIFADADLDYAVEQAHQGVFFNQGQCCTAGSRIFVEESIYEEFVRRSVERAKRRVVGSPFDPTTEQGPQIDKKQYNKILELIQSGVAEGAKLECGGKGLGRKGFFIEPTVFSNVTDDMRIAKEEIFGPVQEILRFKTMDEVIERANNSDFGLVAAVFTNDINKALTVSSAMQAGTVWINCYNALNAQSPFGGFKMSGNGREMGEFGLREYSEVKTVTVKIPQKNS
Description: (§1) Recombinant enzyme and inhibitor added immediately before assay. Reaction rate measured by resorufln fluorescence.

mALDH1a2 = target: T4, mALDH1a2 (Mus musculus, UniProt Q62148); assay: Aldh1a2 enzyme inhibition assay (resorufin fluorescence), mouse enzyme
T4 construct: made in house; host or cells: E. coli BL21-DE3
T4 sequence (Q62148 1-518): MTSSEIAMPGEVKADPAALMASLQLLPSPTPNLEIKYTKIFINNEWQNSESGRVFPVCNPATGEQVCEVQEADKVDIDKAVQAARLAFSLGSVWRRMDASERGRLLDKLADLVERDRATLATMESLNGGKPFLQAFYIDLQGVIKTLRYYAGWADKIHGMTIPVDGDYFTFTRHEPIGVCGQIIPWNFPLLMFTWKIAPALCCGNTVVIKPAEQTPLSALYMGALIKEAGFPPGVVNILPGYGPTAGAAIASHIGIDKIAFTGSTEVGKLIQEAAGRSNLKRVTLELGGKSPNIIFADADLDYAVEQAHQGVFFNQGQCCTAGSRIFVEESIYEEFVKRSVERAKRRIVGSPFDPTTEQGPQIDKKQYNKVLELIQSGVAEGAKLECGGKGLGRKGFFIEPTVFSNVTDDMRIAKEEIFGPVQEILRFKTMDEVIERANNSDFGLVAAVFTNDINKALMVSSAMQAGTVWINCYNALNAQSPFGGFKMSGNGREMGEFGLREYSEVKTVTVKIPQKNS
Description: as §1

Structure (SMILES) | IC50 (hALDH1a3) | mAldh1a3 IC50 (mALDH1a3) | IC50 (hALDH1a2) | IC50 (mALDH1a2) | IC50 (mALDH1a3)
O=C1CCc2cc(NC(=O)c3ccncc3-c3ccccc3F)ccc2N1 [Compound 25] | > 5 µM | No activity | 1 to 5 µM | 1 to 5 µM | –
O=C1CCc2cc(NC(=O)c3ccncc3-c3ccccc3F)cc(Cl)c2N1 [Compound 26] | 1 to 5 µM | No activity | 0.1 to 0.25 µM | 0.1 to 0.25 µM | –
Cc1cc(NC(=O)c2ccncc2CC(F)(F)F)cc2c1NC(=O)CS2(=O)=O [Compound 28] | > 5 µM | – | > 5 µM | > 5 µM | 1 to 5 µM
CCc1scnc1C(=O)Nc1cc(C)c2c(c1)C1CC1C(=O)N2 (stereo not drawn) [Compound 39] | 0.25 to 1 µM | – | 0.25 to 1 µM | 0.25 to 1 µM | 0.25 to 1 µM
CCc1scnc1C(=O)Nc1cc(Cl)c2c(c1)CCC(=O)N2 [Compound 44] | 1 to 5 µM | – | 1 to 5 µM | 1 to 5 µM | 0.1 to 0.25 µM
CCc1scnc1C(=O)Nc1cc2c(c(C3CC3)c1)NC(=O)CC2 [Compound 45] | 1 to 5 µM | – | 0.25 to 1 µM | 0.25 to 1 µM | 0.1 to 0.25 µM
CCc1sncc1C(=O)Nc1cc(C)c2c(c1)CCC(=O)N2 [Compound 50] | 0.25 to 1 µM | – | 0.25 to 1 µM | 0.25 to 1 µM | < 0.1 µM
Cc1cc(NC(=O)c2ocnc2CC(F)(F)F)cc2c1NC(=O)CC2 [Compound 56] | 0.25 to 1 µM | – | 1 to 5 µM | 1 to 5 µM | 0.1 to 0.25 µM
CCc1ncoc1C(=O)Nc1cc(C)c2c(c1)CCC(=O)N2 [Compound 57] | 0.25 to 1 µM | – | 1 to 5 µM | 1 to 5 µM | 0.1 to 0.25 µM
CCc1nc[nH]c1C(=O)Nc1cc(C)c2c(c1)CCC(=O)N2 [Compound 59] | 1 to 5 µM | – | 1 to 5 µM | 1 to 5 µM | 0.25 to 1 µM
CCc1ncoc1C(=O)Nc1cc(C)c2c(c1)C1CC1C(=O)N2 (stereo not drawn) [Compound 60] | 0.25 to 1 µM | – | 0.25 to 1 µM | 0.25 to 1 µM | 0.1 to 0.25 µM
O=C(Nc1cc(F)c2c(c1)C1CC1C(=O)N2)c1ocnc1CC(F)(F)F (stereo not drawn) [Compound 61] | 0.1 to 0.25 µM | – | 0.25 to 1 µM | 0.25 to 1 µM | 0.25 to 1 µM
CCc1ncoc1C(=O)Nc1cc(F)c2c(c1)C1CC1C(=O)N2 (stereo not drawn) [Compound 62] | 1 to 5 µM | – | > 5 µM | > 5 µM | 1 to 5 µM
Cc1cc(NC(=O)c2scnc2CC(C)(C)C)cc2c1NC(=O)CC2 [Compound 64] | 0.25 to 1 µM | – | 0.25 to 1 µM | 1 to 5 µM | 1 to 5 µM
Cc1cc(NC(=O)c2scnc2CC(C)C)cc2c1NC(=O)CC2 [Compound 65] | 0.1 to 0.25 µM | – | 1 to 5 µM | 1 to 5 µM | 0.25 to 1 µM
CCCc1ncsc1C(=O)Nc1cc(C)c2c(c1)CCC(=O)N2 [Compound 66] | 0.1 to 0.25 µM | – | 0.25 to 1 µM | 0.25 to 1 µM | 0.1 to 0.25 µM
Cc1cc(NC(=O)c2scnc2C)cc2c1NC(=O)CC2 [Compound 67] | 0.25 to 1 µM | – | 1 to 5 µM | 1 to 5 µM | 0.25 to 1 µM
Cc1c(F)c(NC(=O)c2ncsc2CC(F)(F)F)cc2c1NC(=O)CC2 [Compound 72] | 0.1 to 0.25 µM | – | 0.1 to 0.25 µM | 0.25 to 1 µM | 0.1 to 0.25 µM

Now from value to compound:

IC50 (hALDH1a3) | mAldh1a3 IC50 (mALDH1a3) | IC50 (hALDH1a2) | IC50 (mALDH1a2) | IC50 (mALDH1a3) | Structure (SMILES)
< 0.1 µM | – | 0.1 to 0.25 µM | 0.1 to 0.25 µM | 0.25 to 1 µM | Cc1cc(NC(=O)c2ccncc2CC2(C)CC2)cc2c1NC(=O)CC2 [Compound 27]
0.1 to 0.25 µM | – | 0.25 to 1 µM | 0.25 to 1 µM | < 0.1 µM | Cc1cc(NC(=O)c2scnc2CC(F)(F)F)cc2c1NC(=O)CC2 [Compound 31]
0.1 to 0.25 µM | – | 0.25 to 1 µM | 0.25 to 1 µM | < 0.1 µM | CCc1ncsc1C(=O)Nc1cc(C)c2c(c1)CCC(=O)N2 [Compound 32]
0.1 to 0.25 µM | – | < 0.1 µM | < 0.1 µM | < 0.1 µM | Cc1cc(NC(=O)c2scnc2CC(F)(F)F)cc2c1NC(=O)C1CC21 (stereo not drawn) [Compound 33]
< 0.1 µM | – | < 0.1 µM | < 0.1 µM | < 0.1 µM | CCc1ncsc1C(=O)Nc1cc(C)c2c(c1)C1CC1C(=O)N2 (stereo not drawn) [Compound 34]
0.1 to 0.25 µM | – | 0.25 to 1 µM | 0.25 to 1 µM | < 0.1 µM | O=C1CCc2cc(NC(=O)c3scnc3CC(F)(F)F)cc(Cl)c2N1 [Compound 35]
0.1 to 0.25 µM | – | 0.25 to 1 µM | 0.25 to 1 µM | < 0.1 µM | CCc1ncsc1C(=O)Nc1cc(Cl)c2c(c1)CCC(=O)N2 [Compound 36]
0.1 to 0.25 µM | – | 0.1 to 0.25 µM | 0.1 to 0.25 µM | < 0.1 µM | O=C(Nc1cc(Cl)c2c(c1)C1CC1C(=O)N2)c1scnc1CC(F)(F)F (stereo not drawn) [Compound 37]
0.1 to 0.25 µM | – | 0.1 to 0.25 µM | 0.1 to 0.25 µM | < 0.1 µM | CCc1ncsc1C(=O)Nc1cc(Cl)c2c(c1)C1CC1C(=O)N2 (stereo not drawn) [Compound 38]
< 0.1 µM | – | < 0.1 µM | < 0.1 µM | < 0.1 µM | Cc1cc(NC(=O)c2ncsc2CC(F)(F)F)cc2c1NC(=O)C1CC21 (stereo not drawn) [Compound 40]
< 0.1 µM | – | < 0.1 µM | < 0.1 µM | < 0.1 µM | CCc1cnsc1C(=O)Nc1cc(C)c2c(c1)C1CC1C(=O)N2 (stereo not drawn) [Compound 41]
0.1 to 0.25 µM | – | 0.25 to 1 µM | 1 to 5 µM | < 0.1 µM | O=C(Nc1cc(Cl)c2c(c1)C1CC1C(=O)N2)c1scnc1CC(F)(F)F (stereo not drawn) [Compound 42]
0.1 to 0.25 µM | – | 1 to 5 µM | 1 to 5 µM | < 0.1 µM | CCc1ncsc1C(=O)Nc1cc(Cl)c2c(c1)C1CC1C(=O)N2 (stereo not drawn) [Compound 43]
0.1 to 0.25 µM | – | 0.1 to 0.25 µM | 0.1 to 0.25 µM | < 0.1 µM | CCc1csnc1C(=O)Nc1cc(C)c2c(c1)C1CC1C(=O)N2 (stereo not drawn) [Compound 46]
0.1 to 0.25 µM | – | 0.1 to 0.25 µM | 0.1 to 0.25 µM | < 0.1 µM | CCc1cnsc1C(=O)Nc1cc(C)c2c(c1)CCC(=O)N2 [Compound 48]
< 0.1 µM | – | < 0.1 µM | 0.1 to 0.25 µM | < 0.1 µM | Cc1cc(NC(=O)c2cnsc2CC(F)(F)F)cc2c1NC(=O)CC2 [Compound 49]
0.1 to 0.25 µM | – | < 0.1 µM | 0.1 to 0.25 µM | < 0.1 µM | CCc1sncc1C(=O)Nc1cc(C)c2c(c1)C1CC1C(=O)N2 (stereo not drawn) [Compound 52]
< 0.1 µM | – | 0.1 to 0.25 µM | 0.25 to 1 µM | < 0.1 µM | Cc1cc(NC(=O)c2scnc2CC2CC2)cc2c1NC(=O)CC2 [Compound 63]
